Source: ChEMBL document CHEMBL3885881, “DrugMatrix”

Species: Rattus norvegicus
Assay: DrugMatrix - Regimen: Daily Repeat
Type: toxicity, organism-based, Sprague-Dawley
Design: regimen Daily Repeat, gender Male, age 6-8 weeks
Conditions: in vivo, iv, vehicle 100 % SALINE; for ABSOLUTE BASOPHIL / ABSOLUTE EOSINOPHIL / ABSOLUTE LYMPHOCYTE / ABSOLUTE MONOCYTE / ABSOLUTE SEGMENTED NEUTROPHIL / BASOPHIL / EOSINOPHIL / ERYTHROCYTE COUNT / HEMATOCRIT / HEMOGLOBIN / LEUKOCYTE COUNT / LYMPHOCYTE / MEAN CORPUSCULAR HEMOGLOBIN / MEAN CORPUSCULAR HEMOGLOBIN CONCENTRATION / MEAN CORPUSCULAR VOLUME / MONOCYTE / NEUTROPHIL / NUCLEATED RED BLOOD CELLS / PLATELET COUNT: tissue Blood; for ALANINE AMINOTRANSFERASE / ALBUMIN / ALKALINE PHOSPHATASE / ASPARTATE AMINOTRANSFERASE / BLOOD UREA NITROGEN / CARBON DIOXIDE / CHLORIDE / CHOLESTEROL / CREATINE PHOSPHOKINASE / CREATININE / GLUCOSE / LACTATE DEHYDROGENASE / LIPASE / PHOSPHORUS / POTASSIUM / SODIUM / TOTAL BILIRUBIN / TOTAL PROTEIN / URIC ACID: tissue Plasma
[1] = 0 mg/kg, 72 h, dose level Control, time 3 day
[2] = 0 mg/kg, 120 h, dose level Control, time 5 day
[3] = […], 72 h, dose 0.24 mg/Kg, dose level Low, time 3 day
[4] = […], 72 h, dose 2.5 mg/Kg, dose level High, time 3 day

CC[C@@]1(O)C(=O)OCc2c1cc1n(c2=O)Cc2cc3ccccc3nc2-1 [CAMPTOTHECIN]
ABSOLUTE BASOPHIL [1]: 0 CELLS/uL | ABSOLUTE EOSINOPHIL [1]: 21.67 CELLS/uL | ABSOLUTE LYMPHOCYTE [1]: 10193.67 CELLS/uL | ABSOLUTE MONOCYTE [1]: 165.83 CELLS/uL | ABSOLUTE SEGMENTED NEUTROPHIL [1]: 702.17 CELLS/uL | BASOPHIL [1]: 0% | EOSINOPHIL [1]: 0.17% | ERYTHROCYTE COUNT [1]: 5.39 x10E6/uL | HEMATOCRIT [1]: 34.62% | HEMOGLOBIN [1]: 13.8 G/DL | LEUKOCYTE COUNT [1]: 11.08 x10E3/uL | LYMPHOCYTE [1]: 91.83% | MEAN CORPUSCULAR HEMOGLOBIN [1]: 25.68 pg | MEAN CORPUSCULAR HEMOGLOBIN CONCENTRATION [1]: 39.9 G/DL | MEAN CORPUSCULAR VOLUME [1]: 64.37 fL | MONOCYTE [1]: 1.5% | NEUTROPHIL [1]: 6.5% | NUCLEATED RED BLOOD CELLS [1]: 0 /100WBC | PLATELET COUNT [1]: 1202.83 x10E3/uL | ALANINE AMINOTRANSFERASE [1]: 55.5 u/L | ALBUMIN [1]: 4.22 G/DL | ALKALINE PHOSPHATASE [1]: 406.83 u/L | ASPARTATE AMINOTRANSFERASE [1]: 101.5 u/L | BLOOD UREA NITROGEN [1]: 13.5 mg/dL | CARBON DIOXIDE [1]: 30.33 mmol/L | CHLORIDE [1]: 102.17 MEQ/L | CHOLESTEROL [1]: 63.67 mg/dL | CREATINE PHOSPHOKINASE [1]: 732.67 u/L | CREATININE [1]: 0.2 mg/dL | GLUCOSE [1]: 157 mg/dL | LACTATE DEHYDROGENASE [1]: 442.5 u/L | LIPASE [1]: 10.83 u/L | PHOSPHORUS [1]: 12.68 mg/dL | POTASSIUM [1]: 5.67 MEQ/L | SODIUM [1]: 144 MEQ/L | TOTAL BILIRUBIN [1]: 0.15 mg/dL | TOTAL PROTEIN [1]: 6.02 G/DL | URIC ACID [1]: 1.55 mg/dL | ABSOLUTE BASOPHIL [2]: 0 CELLS/uL | ABSOLUTE EOSINOPHIL [2]: 17 CELLS/uL | ABSOLUTE LYMPHOCYTE [2]: 11849.17 CELLS/uL | ABSOLUTE MONOCYTE [2]: 69.83 CELLS/uL | ABSOLUTE SEGMENTED NEUTROPHIL [2]: 730.67 CELLS/uL | BASOPHIL [2]: 0% | EOSINOPHIL [2]: 0.17% | ERYTHROCYTE COUNT [2]: 5.93 x10E6/uL | HEMATOCRIT [2]: 37.42% | HEMOGLOBIN [2]: 14.4 G/DL | LEUKOCYTE COUNT [2]: 12.67 x10E3/uL | LYMPHOCYTE [2]: 93.17% | MEAN CORPUSCULAR HEMOGLOBIN [2]: 24.32 pg | MEAN CORPUSCULAR HEMOGLOBIN CONCENTRATION [2]: 38.5 G/DL | MEAN CORPUSCULAR VOLUME [2]: 63.08 fL | MONOCYTE [2]: 0.5% | NEUTROPHIL [2]: 6.17% | NUCLEATED RED BLOOD CELLS [2]: 0 /100WBC | PLATELET COUNT [2]: 1170.5 x10E3/uL | ALANINE AMINOTRANSFERASE [2]: 51 u/L | ALBUMIN [2]: 4.12 G/DL | ALKALINE PHOSPHATASE [2]: 392.67 u/L | ASPARTATE AMINOTRANSFERASE [2]: 81.67 u/L | BLOOD UREA NITROGEN [2]: 16.17 mg/dL | CARBON DIOXIDE [2]: 30.67 mmol/L | CHLORIDE [2]: 100.5 MEQ/L | CHOLESTEROL [2]: 64.83 mg/dL | CREATINE PHOSPHOKINASE [2]: 242.67 u/L | CREATININE [2]: 0.2 mg/dL | GLUCOSE [2]: 186.83 mg/dL | LACTATE DEHYDROGENASE [2]: 188 u/L | LIPASE [2]: 10.83 u/L | PHOSPHORUS [2]: 11.67 mg/dL | POTASSIUM [2]: 5.51 MEQ/L | SODIUM [2]: 142.55 MEQ/L | TOTAL BILIRUBIN [2]: 0.22 mg/dL | TOTAL PROTEIN [2]: 6.08 G/DL | URIC ACID [2]: 1.85 mg/dL | ABSOLUTE BASOPHIL [3]: 0 CELLS/uL | ABSOLUTE EOSINOPHIL [3]: 41.67 CELLS/uL | ABSOLUTE LYMPHOCYTE [3]: 12074 CELLS/uL | ABSOLUTE MONOCYTE [3]: 83.33 CELLS/uL | ABSOLUTE SEGMENTED NEUTROPHIL [3]: 834.33 CELLS/uL | BASOPHIL [3]: 0% | EOSINOPHIL [3]: 0.33% | ERYTHROCYTE COUNT [3]: 5.45 x10E6/uL | HEMATOCRIT [3]: 34.8% | HEMOGLOBIN [3]: 13.63 G/DL | LEUKOCYTE COUNT [3]: 13.03 x10E3/uL | LYMPHOCYTE [3]: 92.67% | MEAN CORPUSCULAR HEMOGLOBIN [3]: 25.13 pg | MEAN CORPUSCULAR HEMOGLOBIN CONCENTRATION [3]: 39.23 G/DL | MEAN CORPUSCULAR VOLUME [3]: 63.97 fL | MONOCYTE [3]: 0.67% | NEUTROPHIL [3]: 6.33% | NUCLEATED RED BLOOD CELLS [3]: 0 /100WBC | PLATELET COUNT [3]: 732.67 x10E3/uL | ABSOLUTE BASOPHIL [4]: 0 CELLS/uL | ABSOLUTE EOSINOPHIL [4]: 0 CELLS/uL | ABSOLUTE LYMPHOCYTE [4]: 9985 CELLS/uL | ABSOLUTE MONOCYTE [4]: 46 CELLS/uL | ABSOLUTE SEGMENTED NEUTROPHIL [4]: 602.33 CELLS/uL | BASOPHIL [4]: 0% | EOSINOPHIL [4]: 0% | ERYTHROCYTE COUNT [4]: 5.09 x10E6/uL | HEMATOCRIT [4]: 32.33% | HEMOGLOBIN [4]: 13.2 G/DL | LEUKOCYTE COUNT [4]: 10.63 x10E3/uL | LYMPHOCYTE [4]: 94% | MEAN CORPUSCULAR HEMOGLOBIN [4]: 25.93 pg | MEAN CORPUSCULAR HEMOGLOBIN CONCENTRATION [4]: 40.87 G/DL | MEAN CORPUSCULAR VOLUME [4]: 63.53 fL | MONOCYTE [4]: 0.33% | NEUTROPHIL [4]: 5.67% | NUCLEATED RED BLOOD CELLS [4]: 0 /100WBC | PLATELET COUNT [4]: 1247.67 x10E3/uL
